Patent publication US10597388B2, “Pyridazinone herbicides” (FMC CORPORATION, priority 2014, dated 2020)

What was measured:
Format in all cases: in vivo
[1] = tested on: barnyardgrass (Echinochloa crus-galli); experiment: Test C greenhouse herbicide test, pre- and postemergence
How it was run: (§1)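 Preemergence: seeds sown in a loam soil–sand blend and sprayed with test chemicals in a non-phytotoxic solvent mixture containing surfactant. Postemergence: plants grown in peat-based medium and treated at 2 to 18 cm (1- to 4-leaf stage). After 13 to 15 d in a greenhouse, injury was visually rated 0–100 against controls.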

[2] = tested on: blackgrass (Alopecurus myosuroides); experiment: as above
How it was run: as §1

corn (Zea mays) = experiment: as above
How it was run: as §1

[3] = tested on: crabgrass, large (large crabgrass, Digitaria sanguinalis); experiment: as above
How it was run: as §1

[4] = tested on: foxtail, giant (giant foxtail, Setaria faberii); experiment: as above
How it was run: as §1

[5] = tested on: johnsongrass (Sorghum halepense); experiment: as above
How it was run: as §1

[6] = tested on: lambsquarters (Chenopodium album); experiment: as above
How it was run: as §1

[7] = tested on: morningglory (Ipomoea coccinea); experiment: as above
How it was run: as §1

[8] = tested on: pigweed (Amaranthus retroflexus); experiment: as above
How it was run: as §1

[9] = tested on: ragweed (common ragweed, Ambrosia elatior); experiment: as above
How it was run: as §1

[10] = tested on: ryegrass, Italian (Italian ryegrass, Lolium multiflorum); experiment: as above
How it was run: as §1

soybean (Glycine max) = experiment: as above
How it was run: as §1

[11] = tested on: waterhemp (common waterhemp, Amaranthus rudis); experiment: as above
How it was run: as §1

[12] = tested on: wheat (winter wheat, Triticum aestivum); experiment: as above
How it was run: as §1

kochia (Kochia scoparia) = experiment: Test C greenhouse herbicide test, postemergence
How it was run: (§2)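 Ratings are visual scores from 0 (no effect) to 100 (complete control), made against controls 13–15 d after treatment. Postemergence sprays were applied in the greenhouse to plants 2–18 cm tall (1- to 4-leaf stage) in peat-moss/vermiculite potting medium.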

[13] = tested on: oat, wild (wild oat, Avena fatua); experiment: Test C greenhouse herbicide test, postemergence
How it was run: as §2

[14] = Postemergence, 31 g ai/ha, 0 to 100 scale (0 no effect, 100 complete control)
[15] = Postemergence, 125 g ai/ha, scale 0 to 100, 0 is no effect, 100 is complete control
[16] = Postemergence, 250 g ai/ha, scale 0 to 100, 0 no effect, 100 complete control, 13 to 15 d
[17] = Preemergence, 31 g ai/ha, scale 0 to 100, 0 is no effect, 100 is complete control
[18] = Preemergence, 62 g ai/ha, scale 0 to 100, 0 is no effect, 100 is complete control
[19] = Preemergence, 125 g ai/ha, scale 0 to 100, 0 is no effect, 100 is complete control
[20] = Preemergence, 250 g ai/ha, scale 0 to 100 (0 no effect, 100 complete control)
[21] = postemergence, 62 g ai/ha, scale 0 to 100, 0 no effect, 100 complete control

## Cc1ccc2ccc(C)c(-c3c(O)c(C)nn(C)c3=O)c2c1 [Compound 60]
[1]; [14]
  Barnyardgrass plant response rating: 20
[1]; [15]
  Plant response rating, Barnyardgrass: 35
[1]; [16]
  Plant response rating, Barnyardgrass: 65
[1]; [17]
  Plant response rating, Barnyardgrass: 10
[1]; [18]
  Plant response rating, Barnyardgrass: 40
[1]; [19]
  Plant response rating, Barnyardgrass: 85
[1]; [20]
  Barnyardgrass plant response rating: 90
[1]; [21]
  Barnyardgrass plant response rating: 25
[2]; [14]
  Blackgrass plant response rating: 50
[2]; [15]
  Plant response rating, Blackgrass: 85
[2]; [16]
  Plant response rating, Blackgrass: 90
[2]; [17]
  Plant response rating, Blackgrass: 90
[2]; [18]
  Plant response rating, Blackgrass: 90
[2]; [19]
  Plant response rating, Blackgrass: 90
[2]; [20]
  Blackgrass plant response rating: 90
[2]; [21]
  Blackgrass plant response rating: 60
Corn (Zea mays); [14]
  Corn plant response rating: 10
Corn (Zea mays); [15]
  Plant response rating, Corn: 30
Corn (Zea mays); [16]
  Plant response rating, Corn: 35
Corn (Zea mays); [17]
  Plant response rating, Corn: 0
Corn (Zea mays); [18]
  Plant response rating, Corn: 10
Corn (Zea mays); [19]
  Plant response rating, Corn: 30
Corn (Zea mays); [20]
  Corn plant response rating: 45
Corn (Zea mays); [21]
  Corn plant response rating: 25
[3]; [14]
  Crabgrass, Large plant response rating: 15
[3]; [15]
  Plant response rating, Crabgrass, Large: 50
[3]; [16]
  Plant response rating, Crabgrass, Large: 65
[3]; [17]
  Plant response rating, Crabgrass, Large: 20
[3]; [18]
  Plant response rating, Crabgrass, Large: 75
[3]; [19]
  Plant response rating, Crabgrass, Large: 85
[3]; [20]
  Crabgrass, Large plant response rating: 95
[3]; [21]
  Crabgrass, Large plant response rating: 35
[4]; [14]
  Foxtail, Giant plant response rating: 45
[4]; [15]
  Plant response rating, Foxtail, Giant: 70
[4]; [16]
  Plant response rating, Foxtail, Giant: 90
[4]; [17]
  Plant response rating, Foxtail, Giant: 75
[4]; [18]
  Plant response rating, Foxtail, Giant: 85
[4]; [19]
  Plant response rating, Foxtail, Giant: 100
[4]; [20]
  Foxtail, Giant plant response rating: 100
[4]; [21]
  Foxtail, Giant plant response rating: 60
[5]; [14]
  Johnsongrass plant response rating: 5
[5]; [15]
  Plant response rating, Johnsongrass: 55
[5]; [16]
  Plant response rating, Johnsongrass: 45
[5]; [17]
  Plant response rating, Johnsongrass: 5
[5]; [18]
  Plant response rating, Johnsongrass: 20
[5]; [19]
  Plant response rating, Johnsongrass: 40
[5]; [20]
  Johnsongrass plant response rating: 60
[5]; [21]
  Johnsongrass plant response rating: 35
[6]; [14]
  Lambsquarters plant response rating: 85
[6]; [15]
  Plant response rating, Lambsquarters: 95
[6]; [16]
  Plant response rating, Lambsquarters: 100
[6]; [17]
  Plant response rating, Lambsquarters: 80
[6]; [18]
  Plant response rating, Lambsquarters: 85
[6]; [19]
  Plant response rating, Lambsquarters: 95
[6]; [20]
  Lambsquarters plant response rating: 90
[6]; [21]
  Lambsquarters plant response rating: 90
[7]; [14]
  Morningglory plant response rating: 90
[7]; [15]
  Plant response rating, Morningglory: 100
[7]; [16]
  Plant response rating, Morningglory: 100
[7]; [17]
  Plant response rating, Morningglory: 85
[7]; [18]
  Plant response rating, Morningglory: 98
[7]; [19]
  Plant response rating, Morningglory: 98
[7]; [20]
  Morningglory plant response rating: 100
[7]; [21]
  Morningglory plant response rating: 98
[8]; [14]
  Pigweed plant response rating: 85
[8]; [15]
  Plant response rating, Pigweed: 95
[8]; [16]
  Plant response rating, Pigweed: 98
[8]; [17]
  Plant response rating, Pigweed: 100
[8]; [18]
  Plant response rating, Pigweed: 100
[8]; [19]
  Plant response rating, Pigweed: 100
[8]; [20]
  Pigweed plant response rating: 100
[8]; [21]
  Pigweed plant response rating: 85
[9]; [14]
  Ragweed plant response rating: 85
[9]; [15]
  Plant response rating, Ragweed: 98
[9]; [16]
  Plant response rating, Ragweed: 100
[9]; [17]
  Plant response rating, Ragweed: 80
[9]; [18]
  Plant response rating, Ragweed: 90
[9]; [19]
  Plant response rating, Ragweed: 95
[9]; [20]
  Ragweed plant response rating: 95
[9]; [21]
  Ragweed plant response rating: 90
[10]; [14]
  Ryegrass, Italian plant response rating: 90
[10]; [15]
  Plant response rating, Ryegrass, Italian: 95
[10]; [16]
  Plant response rating, Ryegrass, Italian: 95
[10]; [17]
  Plant response rating, Ryegrass, Italian: 90
[10]; [18]
  Plant response rating, Ryegrass, Italian: 95
[10]; [19]
  Plant response rating, Ryegrass, Italian: 95
[10]; [20]
  Ryegrass, Italian plant response rating: 95
[10]; [21]
  Ryegrass, Italian plant response rating: 90
Soybean (Glycine max); [14]
  Soybean plant response rating: 15
Soybean (Glycine max); [15]
  Plant response rating, Soybean: 40
Soybean (Glycine max); [16]
  Plant response rating, Soybean: 50
Soybean (Glycine max); [17]
  Plant response rating, Soybean: 0
Soybean (Glycine max); [18]
  Plant response rating, Soybean: 45
Soybean (Glycine max); [19]
  Plant response rating, Soybean: 65
Soybean (Glycine max); [20]
  Soybean plant response rating: 75
Soybean (Glycine max); [21]
  Soybean plant response rating: 20
[11]; [14]
  Waterhemp plant response rating: 65
[11]; [15]
  Plant response rating, Waterhemp: 98
[11]; [16]
  Plant response rating, Waterhemp: 98
[11]; [17]
  Plant response rating, Waterhemp: 100
[11]; [18]
  Plant response rating, Waterhemp: 100
[11]; [19]
  Plant response rating, Waterhemp: 100
[11]; [20]
  Waterhemp plant response rating: 100
[11]; [21]
  Waterhemp plant response rating: 90
[12]; [14]
  Wheat plant response rating: 5
[12]; [15]
  Plant response rating, Wheat: 30
[12]; [16]
  Plant response rating, Wheat: 15
[12]; [17]
  Plant response rating, Wheat: 10
[12]; [18]
  Plant response rating, Wheat: 40
[12]; [19]
  Plant response rating, Wheat: 45
[12]; [20]
  Wheat plant response rating: 70
[12]; [21]
  Wheat plant response rating: 5
Kochia (Kochia scoparia); [14]
  Kochia plant response rating: 90
Kochia (Kochia scoparia); [15]
  Plant response rating, Kochia: 100
Kochia (Kochia scoparia); [16]
  Plant response rating, Kochia: 100
Kochia (Kochia scoparia); [21]
  Kochia plant response rating: 90
[13]; [14]
  Oat, Wild plant response rating: 85
[13]; [15]
  Plant response rating, Oat, Wild: 95
[13]; [16]
  Plant response rating, Oat, Wild: 95
[13]; [21]
  Oat, Wild plant response rating: 95
